Measurements taken from PubChem BioAssay AID248 (DTP/NCI, 2004).
“And” between values parts separate entries of the source, which are not always exact repeats. Identical values can stand only once. Toxic doses and inconclusive results are not listed. Cut-off read from the data, not from the text of the source: active = T/C of 150% or more; inactive = T/C below 125%.

Tested on: L1210 leukemia ip in BDF1 mice, survival T/C
Assay: NCI In Vivo Anticancer Drug Screen. Data for tumor model L1210 Leukemia (intraperitoneal) in B6D2F1 (BDF1) mice
Conditions: higher = longer survival
Summary of the method: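 Value reflects the ratio of survival in compound-treated mice to survival in vehicle-treated controls, with both groups carrying the same transplanted tumor.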

[1] = endpoint: mean survival time, dose: 100.0 mg/kg/injection, schedule: Q04DX003 (ip), vehicle: carboxymethylcellulose (CMC)
[2] = endpoint: mean survival time, dose: 200.0 mg/kg/injection, schedule: Q04DX003 (ip), vehicle: carboxymethylcellulose (CMC)
[3] = endpoint: mean survival time, dose: 100.0 mg/kg/injection, schedule: Q01DX001 (ip), vehicle: saline
[4] = endpoint: mean survival time, dose: 200.0 mg/kg/injection, schedule: Q01DX001 (ip), vehicle: saline
[5] = endpoint: mean survival time, dose: 400.0 mg/kg/injection, schedule: Q01DX001 (ip), vehicle: saline
[6] = endpoint: mean survival time, dose: 100.0 mg/kg/injection, schedule: Q04DX002 (ip), vehicle: saline
[7] = endpoint: mean survival time, dose: 200.0 mg/kg/injection, schedule: Q04DX002 (ip), vehicle: saline
[8] = endpoint: mean survival time, dose: 400.0 mg/kg/injection, schedule: Q04DX002 (ip), vehicle: saline
[9] = endpoint: mean survival time, dose: 100.0 mg/kg/injection, schedule: Q01DX009 (ip), vehicle: saline sonified
[10] = endpoint: mean survival time, dose: 100.0 mg/kg/injection, schedule: Q04DX003 (ip), vehicle: Klucel (hydroxypropylcellulose) (HPC)
[11] = endpoint: mean survival time, dose: 200.0 mg/kg/injection, schedule: Q01DX009 (ip), vehicle: saline sonified
[12] = endpoint: mean survival time, dose: 200.0 mg/kg/injection, schedule: Q04DX003 (ip), vehicle: Klucel (hydroxypropylcellulose) (HPC)
[13] = endpoint: mean survival time, dose: 400.0 mg/kg/injection, schedule: Q04DX003 (ip), vehicle: Klucel (hydroxypropylcellulose) (HPC)
[14] = endpoint: mean survival time, dose: 100.0 mg/kg/injection, schedule: Q01DX001 (ip), vehicle: other

Measured: T/C

COc1ccc2c(c1OC)C(=O)OC2c1ccc(O)c(Br)c1 (stereo not drawn)
inactive: endpoint: mean survival time, dose: 100.0 mg/kg/injection, schedule: Q01DX009 (ip), vehicle: alcohol 95 % of control | endpoint: mean survival time, dose: 100.0 mg/kg/injection, schedule: Q04DX003 (ip), vehicle: saline 109 % of control | endpoint: mean survival time, dose: 200.0 mg/kg/injection, schedule: Q01DX009 (ip), vehicle: alcohol 97 % of control | endpoint: mean survival time, dose: 200.0 mg/kg/injection, schedule: Q04DX003 (ip), vehicle: saline 106 % of control | endpoint: mean survival time, dose: 400.0 mg/kg/injection, schedule: Q01DX009 (ip), vehicle: alcohol 95 % of control | endpoint: mean survival time, dose: 400.0 mg/kg/injection, schedule: Q04DX003 (ip), vehicle: saline 101 % of control

O=C(O)c1ccc(SSc2ccc(C(=O)O)cc2)cc1
inactive: endpoint: mean survival time, dose: 25.0 mg/kg/injection, schedule: Q01DX009 (ip), vehicle: carboxymethylcellulose (CMC) 93 % of control and 100 % of control | endpoint: mean survival time, dose: 25.0 mg/kg/injection, schedule: Q04DX002 (ip), vehicle: carboxymethylcellulose (CMC) 96 % of control and 103 % of control | endpoint: mean survival time, dose: 50.0 mg/kg/injection, schedule: Q01DX009 (ip), vehicle: carboxymethylcellulose (CMC) 97 % of control and 98 % of control | endpoint: mean survival time, dose: 50.0 mg/kg/injection, schedule: Q04DX002 (ip), vehicle: carboxymethylcellulose (CMC) 94 % of control and 90 % of control | endpoint: mean survival time, dose: 50.0 mg/kg/injection, schedule: Q04DX003 (ip), vehicle: carboxymethylcellulose (CMC) 98 % of control and 89 % of control | endpoint: mean survival time, dose: 100.0 mg/kg/injection, schedule: Q01DX001 (ip), vehicle: carboxymethylcellulose (CMC) 93 % of control and 88 % of control | endpoint: mean survival time, dose: 100.0 mg/kg/injection, schedule: Q01DX009 (ip), vehicle: carboxymethylcellulose (CMC) 92 % of control and 94 % of control and 100 % of control | [1] 110 % of control and 89 % of control | endpoint: mean survival time, dose: 200.0 mg/kg/injection, schedule: Q01DX001 (ip), vehicle: carboxymethylcellulose (CMC) 97 % of control and 100 % of control | endpoint: mean survival time, dose: 200.0 mg/kg/injection, schedule: Q04DX002 (ip), vehicle: carboxymethylcellulose (CMC) 97 % of control | [2] 88 % of control and 91 % of control | endpoint: mean survival time, dose: 400.0 mg/kg/injection, schedule: Q01DX001 (ip), vehicle: carboxymethylcellulose (CMC) 110 % of control

COc1ccc(F)cc1CC(=O)O
inactive: endpoint: mean survival time, dose: 100.0 mg/kg/injection, schedule: Q04DX002 (ip), vehicle: Klucel (hydroxypropylcellulose) (HPC) 102 % of control and 105 % of control | endpoint: mean survival time, dose: 200.0 mg/kg/injection, schedule: Q04DX002 (ip), vehicle: Klucel (hydroxypropylcellulose) (HPC) 98 % of control and 105 % of control | endpoint: mean survival time, dose: 400.0 mg/kg/injection, schedule: Q04DX002 (ip), vehicle: Klucel (hydroxypropylcellulose) (HPC) 91 % of control and 96 % of control

C[P+]1(C)CC2OC2C1 (stereo not drawn)
inactive: endpoint: mean survival time, dose: 12.5 mg/kg/injection, schedule: Q01DX009 (ip), vehicle: saline 91 % of control | endpoint: mean survival time, dose: 25.0 mg/kg/injection, schedule: Q01DX009 (ip), vehicle: saline 102 % of control | endpoint: mean survival time, dose: 50.0 mg/kg/injection, schedule: Q01DX009 (ip), vehicle: saline 94 % of control | endpoint: mean survival time, dose: 100.0 mg/kg/injection, schedule: Q01DX009 (ip), vehicle: saline 91 % of control

NC1c2ccccc2CC1C(=O)O (stereo not drawn)
inactive: [3] 95 % of control | [4] 97 % of control

Nc1ccc(C(=O)CC(=O)c2cccc([N+](=O)[O-])c2)cc1
inactive: [1] 97 % of control | [2] 93 % of control | endpoint: mean survival time, dose: 400.0 mg/kg/injection, schedule: Q04DX003 (ip), vehicle: carboxymethylcellulose (CMC) 90 % of control

Nc1ccn(C2OC(CO)C(O)C(O)C2N)c(=O)n1 (stereo not drawn)
inactive: [3] 97 % of control | [4] 103 % of control | [5] 100 % of control

Nc1ccc(OCc2nc(N)nc(N)c2-c2ccc(Cl)cc2)cc1
inactive: endpoint: mean survival time, dose: 100.0 mg/kg/injection, schedule: Q01DX001 (ip), vehicle: Klucel (hydroxypropylcellulose) (HPC) 102 % of control | endpoint: mean survival time, dose: 200.0 mg/kg/injection, schedule: Q01DX001 (ip), vehicle: Klucel (hydroxypropylcellulose) (HPC) 105 % of control | endpoint: mean survival time, dose: 400.0 mg/kg/injection, schedule: Q01DX001 (ip), vehicle: Klucel (hydroxypropylcellulose) (HPC) 96 % of control

Cc1nc(N)n(C)n1
inactive: [6] 104 % of control | [7] 101 % of control | [8] 101 % of control

O=C(OCc1ccccc1)c1cc(I)c(OCc2ccccc2)c(I)c1
inactive: [3] 98 % of control | [4] 98 % of control | [5] 98 % of control

COc1cc(C)c(NC(=O)Oc2ccccc2)c(C)c1
inactive: endpoint: mean survival time, dose: 100.0 mg/kg/injection, schedule: Q04DX003 (ip), vehicle: saline with Tween-80 89 % of control | endpoint: mean survival time, dose: 200.0 mg/kg/injection, schedule: Q04DX003 (ip), vehicle: saline with Tween-80 91 % of control | endpoint: mean survival time, dose: 400.0 mg/kg/injection, schedule: Q04DX003 (ip), vehicle: saline with Tween-80 91 % of control

CCCCCCCC(=O)OCC(=O)[C@]1(O)Cc2c(O)c3c(c(O)c2[C@@H](OC2CC(N)C(O)C(C)O2)C1)C(=O)c1c(OC)cccc1C3=O (stereo partly drawn)
inactive: endpoint: median survival time, dose: 0.25 mg/kg/injection, schedule: Q03HX024 (ip), vehicle: water 110 % of control | endpoint: median survival time, dose: 1.0 mg/kg/injection, schedule: Q03HX024 (ip), vehicle: water 109 % of control | endpoint: median survival time, dose: 1.0 mg/kg/injection, schedule: Q04DX003 (ip), vehicle: water 115 % of control | endpoint: median survival time, dose: 2.0 mg/kg/injection, schedule: Q03HX008 (ip), vehicle: water 114 % of control | endpoint: median survival time, dose: 2.0 mg/kg/injection, schedule: Q04DX003 (ip), vehicle: water 124 % of control | endpoint: median survival time, dose: 2.5 mg/kg/injection, schedule: Q01DX001 (ip), vehicle: water 121 % of control | endpoint: median survival time, dose: 2.5 mg/kg/injection, schedule: Q08DX002 (ip), vehicle: water 101 % of control | endpoint: median survival time, dose: 4.0 mg/kg/injection, schedule: Q01DX009 (ip), vehicle: water 88 % of control | endpoint: median survival time, dose: 4.0 mg/kg/injection, schedule: Q04DX003 (ip), vehicle: water 111 % of control | endpoint: median survival time, dose: 5.0 mg/kg/injection, schedule: Q08DX002 (ip), vehicle: water 121 % of control | endpoint: median survival time, dose: 10.0 mg/kg/injection, schedule: Q01DX001 (ip), vehicle: water 121 % of control | endpoint: median survival time, dose: 10.0 mg/kg/injection, schedule: Q08DX002 (ip), vehicle: water 121 % of control | endpoint: median survival time, dose: 20.0 mg/kg/injection, schedule: Q08DX002 (ip), vehicle: water 96 % of control

CC(=O)Oc1ccc(C2OC(=O)c3ccccc3N2C(C)=O)cc1 (stereo not drawn)
inactive: endpoint: mean survival time, dose: 100.0 mg/kg/injection, schedule: Q01DX009 (ip), vehicle: saline with Tween-80 101 % of control | endpoint: mean survival time, dose: 200.0 mg/kg/injection, schedule: Q01DX009 (ip), vehicle: saline with Tween-80 101 % of control | endpoint: mean survival time, dose: 400.0 mg/kg/injection, schedule: Q01DX009 (ip), vehicle: saline with Tween-80 92 % of control

O=C(Nc1ccccc1F)Nc1cc(Cl)ccc1Cl
inactive: [9] 91 % of control | [10] 89 % of control | [11] 93 % of control | [12] 94 % of control | endpoint: mean survival time, dose: 400.0 mg/kg/injection, schedule: Q01DX009 (ip), vehicle: saline sonified 93 % of control | [13] 86 % of control

O=[As](O)(CC(O)COc1ccccc1)c1ccccc1 (stereo not drawn)
inactive: endpoint: mean survival time, dose: 6.25 mg/kg/injection, schedule: Q01DX001 (ip), vehicle: saline with Tween-80 98 % of control | endpoint: mean survival time, dose: 12.5 mg/kg/injection, schedule: Q01DX001 (ip), vehicle: saline with Tween-80 98 % of control

O=C(O)c1ccc([N+](=O)[O-])cc1OCc1ccccc1
inactive: [14] 103 % of control | endpoint: mean survival time, dose: 200.0 mg/kg/injection, schedule: Q01DX001 (ip), vehicle: other 95 % of control | endpoint: mean survival time, dose: 400.0 mg/kg/injection, schedule: Q01DX001 (ip), vehicle: other 97 % of control

c1ccc2cc(SCCCN3CCOCC3)ccc2c1
inactive: [9] 97 % of control | [10] 95 % of control | [11] 116 % of control | [12] 95 % of control | [13] 90 % of control

Nc1nc2ncc(CNc3ncc(C(=O)NC(CCC(=O)O)C(=O)O)s3)nc2c(=O)[nH]1 (stereo not drawn)
inactive: endpoint: mean survival time, dose: 50.0 mg/kg/injection, schedule: Q01DX001 (ip), vehicle: other 105 % of control | [14] 106 % of control

COc1cc2c3c(c1)/C(=N\NC(N)=O)CCN3CCC2
inactive: [10] 98 % of control | [12] 103 % of control | [13] 108 % of control

C/C=C/c1ccc(OC)cc1
inactive: [6] 104 % of control | [7] 104 % of control | [8] 97 % of control

C=CCC(C#N)(C(=O)OCC)/C(C)=C/C (stereo not drawn)
inactive: endpoint: mean survival time, dose: 75.0 mg/kg/injection, schedule: Q01DX001 (ip), vehicle: other 100 % of control | endpoint: mean survival time, dose: 150.0 mg/kg/injection, schedule: Q01DX001 (ip), vehicle: other 103 % of control | endpoint: mean survival time, dose: 300.0 mg/kg/injection, schedule: Q01DX001 (ip), vehicle: other 97 % of control
